In patent US20240360114A1 (SIRONAX LTD., priority 2021, published 2024) one finds EC50 data, which are given here for 40 compounds.

In one assay the test system is HT-1080 cells. Description: HT-1080 cell viability assay (ferroptosis induced by RSL3, Cell Titer-Glo). In kind it is cell-based. To be noted: Homo sapiens, HT-1080, 20 h, ferroptosis inducer RSL3, 20 hours, ferroptosis inhibitory activity, Table 2. An outline of the steps:
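Cells seeded overnight, then co-treated with RSL3 and compound (3-fold, 10-point dilution, top 1.1 μM) for 20 hours. Viability by CellTiter-Glo luminescence, normalized to untreated controls; EC50 from sigmoidal non-linear regression.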
(In general: Cellular ATP, detected with luciferase, serves as a proxy for viable cell number.)
Take `NC1CCC(Nc2ccc(F)cc2)CC1` (stereo not shown) [Compound 134, N1-(4-fluorophenyl)cyclohexane-1,4-diamine]: the EC50 (usually the concentration needed to bring the measured effect to its halfway point) was 1000 to 10000 nM.
Still for that read-out and setting: the same measure for `NC(=O)C1CCC(Nc2ccc(N3CCC(C(F)(F)F)CC3)cc2)CC1` (stereo not shown) [Compound 10, 4-((4-(4-(trifluoromethyl)piperidin-1-yl)phenyl)amino)cyclohexane-1-carboxamide]: 0.1 to 100 nM; for `NC1CCC(Nc2ccc(-n3cccn3)cc2)CC1` (stereo not shown) [Compound 37A, N1-(4-(1H-pyrazol-1-yl)phenyl)cyclohexane-1,4-diamine]: 1000 to 10000 nM; for `CC(C)(C)c1ccc(-c2ccc(NC3CCC(N)CC3)cc2)cc1` (stereo not shown) [Compound 220, N1-(4′-(tert-butyl)-[1,l′-biphenyl]-4-yl)cyclohexane-1,4-diamine]: 0.1 to 100 nM.
The same measure, in the same setting: the same measure for `CC(C)(C)c1ccc(NC2CCC(NC(=O)C3CNCCN3)CC2)cc1` (stereo not shown) [Compound 215, N-(4-((4-(tert-butyl)phenyl)amino)cyclohexyl) piperazine-2-carboxamide]: 0.1 to 100 nM.
`CC(C)(C)c1ccc(N[C@H]2CC[C@H](N)CC2)cc1` [Compound 197, (1r,4r)-N1-(4-(tert-butyl)phenyl)cyclohexane-1,4-diamine] returned an EC50 of 0.1 to 100 nM.
The compound `N[C@H]1CC[C@@H](CNc2ccc3c(c2)CCCC3)CC1` [Compound 309, N-(((1r,4r)-4-aminocyclohexyl)methyl)-5,6,7,8-tetrahydronaphthalen-2-amine] showed an EC50 of 0.1 to 100 nM.
Take `CCCOc1ccc(NC2CCC(N)CC2)cc1` (stereo not shown) [Compound 174, N1-(4-propoxyphenyl)cyclohexane-1,4-diamine]: the EC50 was 0.1 to 100 nM.
On to `CN(C)C1CCC(NC(=O)C2CCC(Nc3ccc(C4CCC(C)(C)CC4)cc3)CC2)CC1` (single isomer, unassigned) [Compound 76A, (4-(dimethylamino)cyclohexyl)-4-((4-(4,4-dimethylcyclohexyl)phenyl)amino)cyclohexane-1-carboxamide], for which the EC50 lay in the range of 0.1 to 100 nM.
Still for that read-out and setting: the same measure for `CC(C)C1CCN(c2ccc(NC3CCC(N)CC3)nn2)CC1` (stereo not shown) [Compound 411, N1-(6-(4-isopropylpiperidin-1-yl)pyridazin-3-yl)cyclohexane-1,4-diamine]: 0.1 to 100 nM; for `Cc1cc(N2CCC(C(F)(F)F)CC2)ccc1NCC[C@H]1CC[C@H](N)CC1` [Compound 383, N-(2-((1r,4r)-4-aminocyclohexyl)ethyl)-2-methyl-4-(4-(trifluoromethyl)piperidin-1-yl)aniline]: 0.1 to 100 nM; for `CNCC1CC(Nc2ccc(C(C)(C)C)cc2)C1` (stereo not shown) [Compound 237, 4-(tert-butyl)-N-(3-((methylamino)methyl)cyclobutyl)aniline]: 1000 to 10000 nM.
The same measure, in the same setting: the same measure for `CCCCc1ccc(NC2CCC(N)CC2)cc1` (stereo not shown) [Compound 137, N1-(4-butylphenyl)cyclohexane-1,4-diamine]: 0.1 to 100 nM; for `CC(C)C1CCN(c2ncc(NCC[C@H]3CC[C@H](NC(N)=O)CC3)cn2)CC1` [Compound 429, 1-((1r,4r)-4-(2-((2-(4-isopropylpiperidin-1-yl)pyrimidin-5-yl)amino)ethyl)cyclohexyl)urea]: 0.1 to 100 nM; for `CC(C)C1CCN(c2ncc(NC[C@H]3C[C@H](N)C3)cn2)CC1` [Compound 448, N-(((1r,3r)-3-aminocyclobutyl)methyl)-2-(4-isopropylpiperidin-1-yl)pyrimidin-5-amine]: 0.1 to 100 nM.
As for `CCC(C)(C)c1ccc(NC2CCC(N)(CO)CC2)cc1` (stereo not shown) [Compound 296A, (1-amino-4-((4-(tert-pentyl)phenyl)amino)cyclohexyl)methanol], the EC50 fell in the range of 0.1 to 100 nM.
In turn, `Cc1nc(N2CC[Si](C)(C)CC2)ccc1NC1CC2(CC(N)C2)C1` (stereo not shown) [Compound 556, N2-(6-(4,4-dimethyl-1,4-azasilinan-1-yl)-2-methylpyridin-3-yl)spiro[3.3]heptane-2,6-diamine] showed an EC50 of 0.1 to 100 nM.
On to `O=C(NO)C1CC2(CC(Nc3cnc(N4CCC(C(F)(F)F)CC4)nc3)C2)C1` (stereo not shown) [Compound 428, N-hydroxy-6-((2-(4-(trifluoromethyl)piperidin-1-yl)pyrimidin-5-yl)amino)spiro[3.3]heptane-2-carboxamide], for which the EC50 fell in the range of 0.1 to 100 nM.
`CC(C)C1CCN(c2ncc(NC3CCC(C(N)=O)CC3)cn2)CC1` (stereo not shown) [Compound 404, 4-((2-(4-isopropylpiperidin-1-yl)pyrimidin-5-yl)amino)cyclohexane-1-carboxamide] had an EC50 of 0.1 to 100 nM.
The compound `CN(C)C1CCC(Nc2ccc(N3CCC(C(F)(F)F)CC3)cc2)CC1` (stereo not shown) [Compound 8, N1,N1-dimethyl-N4-(4-(4-(trifluoromethyl)piperidin-1-yl)phenyl)cyclohexane-1,4-diamine] displayed an EC50 of 0.1 to 100 nM.
Same read-out and setting: the same measure for `CC1(C)CCC(c2ccc(NC3CCS(=O)(=O)CC3)cc2)CC1` [Compound 261, 4-((4-(4,4-dimethylcyclohexyl)phenyl)amino)tetrahydro-2H-thiopyran 1,1-dioxide]: 100 to 1000 nM; for `CN(C)CC1CCC(Nc2ccc(C(C)(C)C)cc2)CC1` (stereo not shown) [Compound 196, 4-(tert-butyl)-N-(4-((dimethylamino)methyl)cyclohexyl)aniline]: 0.1 to 100 nM.
`Cc1cc(NC2CCC(CN)CC2)cc(C)c1C` (stereo not shown) [Compound 312, N-(4-(aminomethyl)cyclohexyl)-3,4,5-trimethylaniline] returned an EC50 of 0.1 to 100 nM.
`CC1(C)CCC(c2ccc(NC3CCC(C(N)=O)C3)cc2)CC1` (single isomer, unassigned) [Compound 146A, 3-((4-(4,4-dimethylcyclohexyl)phenyl)amino)cyclopentane-1-carboxamide] showed an EC50 of 0.1 to 100 nM.
`COCCOc1cc(NC2CCC(N)CC2)ccc1N1CCC(C(F)(F)F)CC1` (stereo not shown) [Compound 473, N1-(3-(2-methoxyethoxy)-4-(4-(trifluoromethyl)piperidin-1-yl)phenyl)cyclohexane-1,4-diamine] yielded an EC50 of 0.1 to 100 nM.
Regarding `CCC(CC)c1ccc(NC2CCC(CN)CC2)cc1` (single isomer, unassigned) [Compound 81A, N-(4-(aminomethyl)cyclohexyl)-4-(pentan-3-yl)aniline], the EC50 was in the range of 100 to 1000 nM.
Compound `N[C@H]1CC[C@H](CNc2ccc(C3CCN(CC(F)(F)F)CC3)cc2)CC1` [Compound 559, N-(((1r, 4r)-4-aminocyclohexyl)methyl)-4-(1-(2,2,2-trifluoroethyl)piperidin-4-yl)aniline] showed an EC50 of 0.1 to 100 nM.
The compound `CC1CN(c2ccc(NC[C@H]3CC[C@H](N)CC3)c(Cl)c2)CC(C)O1` (stereo partly shown) [Compound 483, N-(((1r,4r)-4-aminocyclohexyl)methyl)-2-chloro-4-(2,6-dimethylmorpholino) aniline] displayed an EC50 of 0.1 to 100 nM.
Still for that read-out and setting: the result for `O=C1CC(C(=O)NC2CC(Nc3ccc(C4CCCCC4)cc3)C2)CN1` (stereo not shown) [Compound 112, N-(3-((4-cyclohexylphenyl)amino)cyclobutyl)-5-oxopyrrolidine-3-carboxamide] reads 100 to 1000 nM; that for `CC1CN(c2ccc3cc(NC4CC5(CC(N)C5)C4)ncc3c2)CC(C)O1` (stereo not shown) [Compound 570, N2-(7-(2,6-dimethylmorpholino)isoquinolin-3-yl)spiro[3.3]heptane-2,6-diamine], 0.1 to 100 nM.

The same assay, now with this note: Homo sapiens, HT-1080, 20 h, ferroptosis inducer RSL3, 20 hours, ferroptosis inhibitory activity, Table 3.
In the case of `COCCN(CC(F)(F)F)c1ccc(NC2CC3(CC(N)C3)C2)c(C)n1` (stereo not shown) [Compound 660, N^5-(6-aminospiro[3.3]heptan-2-yl)-N^2-(2-methoxyethyl)-6-methyl-N2-(2,2,2-trifluoroethyl)pyridine-2,5-diamine], the EC50 fell in the range of 0.1 to 100 nM.
`CC1(C)CN(c2ccc3cc(NC4CC5(CC(N)C5)C4)ccc3n2)CC(C)(C)O1` (stereo not shown) [Compound 646, N2-(2-(2,2,6,6-tetramethylmorpholino)quinolin-6-yl)spiro[3.3]heptane-2,6-diamine] returned an EC50 of 0.1 to 100 nM.
With `C[C@@H]1CN(c2ccc3cc(NC4CC(CN)C4)ccc3c2)C[C@H](C)O1` (stereo partly drawn) [Compound 649, N-(3-(aminomethyl)cyclobutyl)-6-((2S,6R)-2,6-dimethylmorpholino) naphthalen-2-amine], the EC50 is 0.1 to 100 nM.
Compound `CC1CN(c2ncc(NC3CC4(CC(N)C4)C3)cc2F)CC(C)N1CC(F)(F)F` (stereo not shown) [Compound 580, N^2-(6-(3.5-dimethyl-4-(2,2,2-trifluoroethyl)piperazin-1-yl)-5-fluoropyridin-3-yl)spiro[3.3]hept ane-2,6-diamine] had an EC50 of 0.1 to 100 nM.
As for `Cc1nc(N2CCC(C)(C)CC2)ccc1NC[C@H]1CC[C@H](N)CC1` [Compound 617, N-(((1r,4r)-4-aminocyclohexyl)methyl)-6-(4,4-dimethylpiperidin-1-yl)-2-methylpyridin-3-amine], the EC50 lay in the range of 0.1 to 100 nM.
`Cc1cc(N2CC(C)N(C(=O)C(F)(F)F)C(C)C2)ccc1NC1CC2(CC(N)C2)C1` (stereo not shown) [Compound 644, 1-(4-(4-((6-aminospiro[3.3]heptan-2-yl)amino)-3-methylphenyl)-2,6-dimethylpiperazin-1-yl)-2,2,2-trifluoroethan-1-one]: the EC50 was 0.1 to 100 nM.
The compound `CC[C@@H]1CN(c2ccc(NC3CC4(C3)CC(C(N)=O)C4)c(C)n2)C[C@H](CC)O1` (stereo partly drawn) [Compound 575, 6-((6-((2S,6R)-2,6-diethylmorpholino)-2-methylpyridin-3-yl)amino)spiro[3.3]heptane-2-carboxamide] returned an EC50 of 0.1 to 100 nM.

Staying with this assay, now noted: Homo sapiens, ferroptosis inducer RSL3, 20 hours, ferroptosis inhibitory activity, Table 2.
In turn, `CC1(C)CCC(c2ccc(NC3CCC(C(C)(C)N)CC3)cc2)CC1` (stereo not shown) [Compound 226, N-(4-(2-aminopropan-2-yl)cyclohexyl)-4-(4,4-dimethylcyclohexyl)aniline] yielded an EC50 of 0.1 to 100 nM.

The same assay, now with this note: ferroptosis inducer RSL3, 20 hours, ferroptosis inhibitory activity, Table 2.
Consider `CC1(C)CCC(c2ccc(NC3CCC(C(N)=O)CC3)cc2)CC1` (single isomer, unassigned) [Compound 159B, 4-((4-(4,4-dimethylcyclohexyl)phenyl)amino)cyclohexane-1-carboxamide], for which the EC50 fell in the range of 100 to 1000 nM.
With `NC1CCC(Nc2ccc(N3CCCCC3CO)cc2)CC1` (single isomer, unassigned) [Compound 417A, (1-(4-((4-aminocyclohexyl)amino)phenyl)piperidin-2-yl)methanol], the EC50 was in the range of 0.1 to 100 nM.
